The record followed here is patent EP1285918A1, “C7 Ester substituted taxanes as antitumor agents” (Florida State University Research Foundation, Inc., priority 2001, dated 2003).

Like-named read-outs stand apart in the source and are kept apart here.

Data set [1] concerns SKMES Human Lung Carcinoma Xenograft. On the procedure: The antitumor compound was prepared in the following vehicle: 10% ethanol and 90% Liposyn III.
Female Nu/Nu mice (6-8 weeks of age; implanted with 1 mm^3 SKMES lung carcinoma fragments in the flank) were sorted into treatment groups of six mice each. SKMES size ranges and group mean SKMES size ranges were 126-448 mg and 238-241 mg, respectively. […] Treatments were administered as a single i.v. bolus on Day 1, and the study was terminated on Day 60.
The mean days of survival is the number of days after which a SKMES neoplasm reached a size of 2.0 g and the animal was euthanized. A complete response is obtained if the tumor is not palpable at the end of the study. A partial response is obtained if the tumor shrinks to a size smaller than its size on Day 1 of the study.

Data set [2] concerns MX-1 Human Breast Carcinoma Xenograft. The following applies: i.v. qd x 1 (Taxol 36 mg/kg split dose, 1393 72.6 mg/kg); for Mean Score: tumor score 1 to 10, group mean. Here is the method: Antitumor compounds were formulated for an i.v. dosing regime (single i.v. bolus on qd x 1 schedule) prepared in the following vehicle: 5% ethanol, 5% Cremophor and 90% isotonic saline. […] Other compounds were similarly formulated. […] The dosing volume was 0.3 ml per 20 g mouse.
All vehicle control animals in the split dosing regimes were dosed twice intravenously with half the total volume being given separated by one hour. The study was terminated on Day 60.
The mean days of survival is the number of days after which a neoplasm reached a size of 2.0 g and the animal was euthanized. A complete response is obtained if the tumor is not palpable at the end of the study. A partial response is obtained if the tumor shrinks to a size smaller than its size on Day 1 of the study. […]

In a further data set the test system is blood cell populations. Briefly: Effect of oral treatment on blood cell populations, body weight and tumor weight in MX-1 bearing mice (Example 25, Table 23). Format: in vivo, nu/nu mice. The following applies: 107 mg/kg single oral bolus. Here is the method:
(§1) The study was terminated on Day 63.
In addition to survival and tumor regression responses, the effect of treatment on blood cell populations was assessed. The major effect of these antitumor compounds on blood cell populations was a marked reduction in the neutrophil cell number. As well, monocyte depletion correlated fairly well with neutrophil reduction for each antitumor compound. […] There was a correlation between antitumor activity and reduced neutrophil count. In general, toxicity (as determined by neutrophil depletion) and weight loss correlated with efficacy. Importantly, the toxicities observed with the very efficacious antitumor compounds were manageable and reversible; neutrophil count and body weight rebounded from their low points in just a few days. Table 23 summarizes the weight reduction, neutrophil and monocyte measurements on Day 4, with tumor weight reduction calculated at Day 18: Table 23

Data set [3] has as its system MX-1 Human Breast Carcinoma Xenograft. Briefly: In vivo evaluation of oral administration of antitumor compounds against MX-1 human breast carcinoma xenograft (Example 25).
Text: This study investigated the efficacy of various antitumor compounds when administered orally against the MX-1 human breast carcinoma xenograft.
as §1

The mark [4] stands for this setting: 15 mg/kg single i.v. bolus Day 1, 6 mice/group, study end Day 60.
Setting [5] is: 62 mg/kg single i.v. bolus Day 1, 6 mice/group, study end Day 60.
Where [6] appears, read: 108 mg/kg single i.v. bolus Day 1, 6 mice/group, study end Day 60.
Where [7] appears, read: 154 mg/kg single i.v. bolus Day 1, 6 mice/group, study end Day 60.
The mark [8] stands for this setting: 107 mg/kg single oral bolus, 6 mice/group, study end Day 63.

Regarding `CCC(=O)O[C@H]1C[C@H]2OC[C@@]2(OC(C)=O)[C@H]2[C@H](OC(=O)c3ccccc3)[C@]3(O)C[C@H](OC(=O)[C@H](O)[C@@H](NC(=O)OC(C)(C)C)c4cccs4)C(C)=C([C@@H](O)C(=O)[C@]12C)C3(C)C` [Compound 1418], the Survivors in data set [1] (setting [4]) stood at 0; in data set [1] (setting [5]), 0; in data set [1] (setting [6]), 3; in data set [1] (setting [7]), 5. Besides, the “Toxic Deaths” value in data set [1] (setting [4]), in data set [1] (setting [5]), in data set [1] (setting [6]) and in data set [1] (setting [7]) was 0 each time. For the same compound, the “MDS (n)” value in data set [1] (62 mg/kg single i.v. bolus Day 1, 6 mice/group, study end Day 60, days until tumor reached 2.0 g) is given as 35.3 ± 3.3 (6) days; in data set [1] (iv, 15 mg/kg), 21.2 ± 2.9 (6) days; in data set [1] (iv, 108 mg/kg), 40.6 ± 2.9 (3) days. Further, the MDS in data set [1] (SKMES, 1418 single i.v. bolus 62 mg/kg (Group 4), 2.0 g cut-off) stood at 35.3 days. The “% Total Response” value in data set [1] (iv, 15 mg/kg) turned out to be 0%; in data set [1] (iv, 62 mg/kg) it was 0%; in data set [1] (iv, 108 mg/kg), 50.0%; in data set [1] (iv, 154 mg/kg), 83.3%. In addition, the “Complete Responses” value in data set [1] (iv, 15 mg/kg) was found to be 0; in data set [1] (iv, 62 mg/kg), 0; in data set [1] (iv, 108 mg/kg), 1; in data set [1] (iv, 154 mg/kg), 5. Also, the “Partial Responses” value in data set [1] (iv, 15 mg/kg) is recorded as 0; in data set [1] (iv, 62 mg/kg), 0; in data set [1] (iv, 108 mg/kg), 2; in data set [1] (iv, 154 mg/kg) it was 0.
`CCC(=O)OC1CC2OCC2(OC(C)=O)C2C(OC(=O)c3ccccc3)C3(O)CC(OC(=O)C(O)C(NC(=O)OC(C)(C)C)c4ccco4)C(C)=C(C(O)C(=O)C12C)C3(C)C` (stereo not drawn) [Compound 1393, 3'-Desphenyl-3'-(2-furyl)-7-propionyl taxotere] displayed a Survivors in data set [2] (6 mice/group, Day 60) of 6.
For the compound `CC(=O)O[C@H]1C(=O)[C@@]2(C)[C@H]([C@H](OC(=O)c3ccccc3)[C@]3(O)C[C@H](OC(=O)[C@H](O)[C@@H](NC(=O)c4ccccc4)c4ccccc4)C(C)=C1C3(C)C)[C@]1(OC(C)=O)CO[C@@H]1C[C@@H]2O` [Taxol, paclitaxel, reference compound], in data set [2] (6 mice/group, Day 60), the “Complete Response” value turned out to be 0, the “Partial Response” value is given as 0 and the Survivors stood at 1. The “Mean Score” value in data set [2] was found to be 1.2 ± 0.8.
For the compound `CCC(=O)O[C@H]1C[C@H]2OC[C@@]2(OC(C)=O)[C@H]2[C@H](OC(=O)c3ccccc3)[C@]3(O)C[C@H](OC(=O)[C@H](O)[C@H](C=C(C)C)NC(=O)OC(C)(C)C)C(C)=C([C@@H](O)C(=O)[C@]12C)C3(C)C` [Compound 1351], in the data set on blood cell populations (Day 4), the “Monocytes (K/µL)” value came to 0.088 K/µL and the “Neutrophils (K/µL)” value is listed as 0.408 K/µL. The “% Reduction” value in the data set with blood cell populations (reduction of monocytes, Day 4) stood at 8.3%. Besides, the “% Reduction” value in the data set with blood cell populations (reduction of neutrophils, Day 4) came out at 55.2%. The “% Reduction” value in the data set with blood cell populations (reduction of tumor weight at Day 18) worked out at 85.9%. In addition, in the data set on blood cell populations (tumor weight at Day 18), the “Weight” value was 122.1 mg. For the same compound, the “Maximum Weight Loss (Day)” value in data set [3] (107 mg/kg single oral bolus, 6 mice/group, on Day 5) is listed as -9.1% (5). In data set [3] (setting [8]), the “Partial Response” value turned out to be 0, the “Stable Disease” value is 1 and the “Toxic Deaths” value was 0. The “Mean Day of Survival (n)” value in data set [3] (107 mg/kg single oral bolus, 6 mice/group, study end Day 63, days until tumor reached 1.5 g) is on record as 46.2 ± 5.1 (5) days. The “survival compared to vehicle control mice” value in data set [3] (MX-1, single oral bolus, doses of Table 22, Day 63) was “significant survival extensions”. In data set [3] (po, 107 mg/kg, 1512 h), the “Complete Response” value amounted to 0.
As for `CCC(=O)O[C@H]1C[C@H]2OC[C@@]2(OC(C)=O)[C@H]2[C@H](OC(=O)c3ccccc3)[C@]3(O)C[C@H](OC(=O)[C@H](O)[C@@H](NC(=O)OC(C)(C)C)c4ccco4)C(C)=C([C@@H](O)C(=O)[C@]12C)C3(C)C` [Compound 1393, 3'-Desphenyl-3'-(2-furyl)-7-propionyl taxotere], in data set [2] (6 mice/group, Day 60), the “Partial Response” value was determined as 1 and the “Stable Disease” value turned out to be 0. Moreover, in data set [2], the “Mean Score” value is 9.8 ± 0.2.
